The text below walks through data of patent US12637427B2, “ALDH-2 inhibitor compounds and methods of use” (Amygdala Neurosciences, Inc., priority 2022, dated 2026).

The structures appear in SMILES notation.

The target of data set [1] is T1, recombinant human ALDH-1 (Homo sapiens, UniProt P00352).
T1 sequence (P00352 1-501): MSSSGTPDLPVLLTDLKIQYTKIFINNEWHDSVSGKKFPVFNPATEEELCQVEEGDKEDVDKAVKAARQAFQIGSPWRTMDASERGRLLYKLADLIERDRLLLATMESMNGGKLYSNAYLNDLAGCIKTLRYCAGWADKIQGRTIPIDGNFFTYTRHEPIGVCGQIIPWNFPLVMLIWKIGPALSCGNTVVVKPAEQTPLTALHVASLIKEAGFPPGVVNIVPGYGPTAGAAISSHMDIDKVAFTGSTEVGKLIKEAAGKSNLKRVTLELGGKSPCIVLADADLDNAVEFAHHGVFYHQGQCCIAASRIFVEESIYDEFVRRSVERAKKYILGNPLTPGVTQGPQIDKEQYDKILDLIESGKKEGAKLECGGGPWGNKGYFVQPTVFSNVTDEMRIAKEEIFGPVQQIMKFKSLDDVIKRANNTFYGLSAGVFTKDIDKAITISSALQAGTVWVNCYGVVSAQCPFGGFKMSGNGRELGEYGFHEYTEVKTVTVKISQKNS
The data set is described as follows: ALDH-1 inhibition assay. The data set is classed as biochemical. The settings on record: 60 min pre-incubation; 10 μM = highest concentration tested; read-out: Enzymatic Assays IC50 ALDH-1.
Description: B. ALDH-1 inhibition assay: The ALDH-1 reaction mixture used in the assay contained 100 μM formaldehyde, 2.5 mM NAD+, 20 mM NaCl, 10 mM MgCl2, 1 mM dithiothreitol (DTT; reducing agent), and 50 nM recombinant human ALDH-1 in 50 mM Hepes buffer, pH 7.5 in a final volume of 10 μL using 384-well Corning 3820 plates. After 60 min of pre-incubation of the test ALDH-2 inhibitor compound with ALDH-1, the reaction was started by adding NAD+ and formaldehyde and the assay reaction mixture was allowed to proceed for 60 minutes. Activity of the ALDH-1 enzyme was determined by monitoring NADH formation using Perkin-Elmer Envision Reader with excitation and emission wavelengths set at 340 and 460 nm, respectively.

The test system of data set [2] is HepaRG spheroids. Description: HepaRG 3D spheroid assay. Type of data set: cell-based. Particulars: minimum effective concentration crossing vehicle control threshold of cell health marker; 100 μM = highest concentration tested. An excerpt:
See e.g., Walker et al., “The evolution of strategies to minimise the risk of human drug-induced liver injury (DILI) in drug discovery and development,” (2020) Archives of Toxicology, Vol. 94: 2559-2585, which is hereby incorporated by reference herein in its entirety. […] In applying the HepaRG spheroid assay analysis to determining the hepatoxic liability of ALDH-2 inhibitor compounds, consideration is made of the binding to plasma protein and the limitations to CNS penetration due to the blood-brain barrier.
E. HepaRG® 3D spheroid assay: The HepaRG 3D spheroid assay is described in Walker et al., “The evolution of strategies to minimise the risk of human drug-induced liver injury (DILI) in drug discovery and development,” (2020) Archives of Toxicology, Vol. 94: 2559-2585. Briefly, HepaRG® cells were seeded into ultra-low adhesion 96-well black walled clear bottomed spheroid microplates. […] At the end of the incubation period, the spheroids were loaded with the relevant dye/antibody for each cell health marker (spheroid count, spheroid size, DNA structure, mitochondrial mass, mitochondrial membrane potential, oxidative stress, glutathione content, and cellular ATP). The plates were then scanned using an automated fluorescent cellular imager, ArrayScan® (Thermo Scientific Cellomics).

The target in data set [3] is T2, recombinant human ALDH-2 (Homo sapiens, UniProt P05091).
T2 sequence (P05091 18-517): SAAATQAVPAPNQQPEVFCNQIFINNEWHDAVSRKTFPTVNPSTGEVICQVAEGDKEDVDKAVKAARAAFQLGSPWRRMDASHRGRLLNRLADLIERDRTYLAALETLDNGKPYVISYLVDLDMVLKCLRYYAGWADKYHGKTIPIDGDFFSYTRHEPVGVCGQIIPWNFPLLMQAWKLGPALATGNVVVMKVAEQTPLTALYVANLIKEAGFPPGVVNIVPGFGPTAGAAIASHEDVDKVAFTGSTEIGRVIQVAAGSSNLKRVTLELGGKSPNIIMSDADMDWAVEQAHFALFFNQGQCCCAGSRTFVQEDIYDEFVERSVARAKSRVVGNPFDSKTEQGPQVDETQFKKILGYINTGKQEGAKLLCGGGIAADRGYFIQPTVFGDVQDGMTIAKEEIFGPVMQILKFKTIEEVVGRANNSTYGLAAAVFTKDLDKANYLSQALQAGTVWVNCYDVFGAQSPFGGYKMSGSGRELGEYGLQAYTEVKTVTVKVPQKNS
Description: ALDH-2 inhibition assay. The data set is classed as biochemical. The settings on record: 60 min pre-incubation; 10 μM = highest concentration tested; read-out: Enzymatic Assays IC50 ALDH2.
Description: A. ALDH-2 inhibition assay: The ALDH-2 reaction mixture used in the assay contained 125 μM formaldehyde, 75 μM NAD+, 20 mM NaCl, 10 mM MgCl2, and 20 nM recombinant human ALDH-2 in 50 mM Hepes buffer, pH 7.5 in a final volume of 10 μL using 384-well Corning 3820 plates. After 60 min of pre-incubation of the test ALDH-2 inhibitor compound with ALDH-2, the reaction was started by adding NAD+ and formaldehyde and the assay reaction mixture was allowed to proceed for 60 minutes. Activity of the ALDH-2 enzyme was determined by monitoring NADH formation using Perkin-Elmer Envision Reader with excitation and emission wavelengths set at 340 and 460 nm, respectively.

The target of data set [4] is T3, MAO-A (Homo sapiens, UniProt P21397).
T3 sequence (P21397 1-527): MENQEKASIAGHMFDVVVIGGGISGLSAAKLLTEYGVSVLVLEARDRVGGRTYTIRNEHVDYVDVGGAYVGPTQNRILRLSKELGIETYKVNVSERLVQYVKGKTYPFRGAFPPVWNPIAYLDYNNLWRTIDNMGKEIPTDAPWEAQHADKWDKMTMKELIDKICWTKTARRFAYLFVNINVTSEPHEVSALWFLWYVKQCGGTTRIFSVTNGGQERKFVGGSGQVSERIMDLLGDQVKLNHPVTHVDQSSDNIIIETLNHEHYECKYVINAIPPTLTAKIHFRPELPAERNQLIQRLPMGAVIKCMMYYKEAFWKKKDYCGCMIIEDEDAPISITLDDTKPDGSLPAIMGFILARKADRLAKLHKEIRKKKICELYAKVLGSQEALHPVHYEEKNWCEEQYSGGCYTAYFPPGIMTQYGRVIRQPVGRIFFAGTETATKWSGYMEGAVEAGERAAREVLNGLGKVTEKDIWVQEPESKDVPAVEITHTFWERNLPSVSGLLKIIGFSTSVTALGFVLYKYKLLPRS
The data set is described as follows: MAO-A inhibition assay. The settings on record: 20 min pre-incubation; 10 μM = highest concentration tested; read-out: Enzymatic Assays IC50 MAO-A. The data set is classed as biochemical. The method, then:
(§1) D. MAO-A and MAO-B inhibition assays: MAO assays included luminogenic MAO substrate, reaction buffers, Luciferin Detection, and a reconstitution buffer with esterase. The MAO reaction mixture used in the assay included microsome contained MAO-A (2 μg) or MAO-B (10 μg), 160 μM substrate for MAO-A or 16 μM substrate for MAO-B, MAO-A buffer (100 mM Hepes buffer, pH 7.5, 5% glycerol) or MAO-B buffer (100 mM Hepes, pH 7.5, 5% glycerol, 10% dimethyl sulfoxide) in a final volume of 30 μL. After 20 minutes of pre-incubation of the MAO-A or MAO-B enzyme with the test ALDH-2 inhibitor compound, the reaction was initiated by adding enzyme substrate and the […] reaction was allowed to proceed for 60 minutes. Reconstituted Luciferin Detection Reagent (30 μL) was then added is added to simultaneously stop the MAO reaction and convert the methyl ester derivative to luciferin and produce light. The amount of light produced is directly proportional to the activity of MAO. The mixtures were further incubated for 20 minutes and activity of the enzyme was determined using Perkin-Elmer Envision Reader.

The target in data set [5] is T4, MAO-B (Homo sapiens, UniProt P27338).
T4 sequence (P27338 1-520): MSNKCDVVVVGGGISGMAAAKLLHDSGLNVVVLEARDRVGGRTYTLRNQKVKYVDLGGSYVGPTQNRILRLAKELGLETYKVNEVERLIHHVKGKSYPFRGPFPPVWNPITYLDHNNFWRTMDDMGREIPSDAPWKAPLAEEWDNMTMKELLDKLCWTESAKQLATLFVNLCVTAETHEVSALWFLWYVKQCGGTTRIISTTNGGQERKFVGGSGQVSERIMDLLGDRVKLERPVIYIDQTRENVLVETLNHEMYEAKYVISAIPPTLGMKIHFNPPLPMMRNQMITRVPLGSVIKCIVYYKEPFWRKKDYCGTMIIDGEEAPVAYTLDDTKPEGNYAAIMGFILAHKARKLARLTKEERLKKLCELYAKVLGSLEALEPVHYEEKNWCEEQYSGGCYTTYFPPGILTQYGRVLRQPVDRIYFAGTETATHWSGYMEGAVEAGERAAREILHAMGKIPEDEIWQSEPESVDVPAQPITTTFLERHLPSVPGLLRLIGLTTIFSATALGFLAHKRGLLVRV
The data set is described as follows: MAO-B inhibition assay. Type of data set: biochemical. Particulars: 20 min pre-incubation; 10 μM = highest concentration tested; read-out: Enzymatic Assays IC50 MAO-B. The method, then:
as §1

The target of data set [6] is T5, recombinant human ALDH-3 (Homo sapiens, UniProt P30838).
T5 sequence (P30838 1-453): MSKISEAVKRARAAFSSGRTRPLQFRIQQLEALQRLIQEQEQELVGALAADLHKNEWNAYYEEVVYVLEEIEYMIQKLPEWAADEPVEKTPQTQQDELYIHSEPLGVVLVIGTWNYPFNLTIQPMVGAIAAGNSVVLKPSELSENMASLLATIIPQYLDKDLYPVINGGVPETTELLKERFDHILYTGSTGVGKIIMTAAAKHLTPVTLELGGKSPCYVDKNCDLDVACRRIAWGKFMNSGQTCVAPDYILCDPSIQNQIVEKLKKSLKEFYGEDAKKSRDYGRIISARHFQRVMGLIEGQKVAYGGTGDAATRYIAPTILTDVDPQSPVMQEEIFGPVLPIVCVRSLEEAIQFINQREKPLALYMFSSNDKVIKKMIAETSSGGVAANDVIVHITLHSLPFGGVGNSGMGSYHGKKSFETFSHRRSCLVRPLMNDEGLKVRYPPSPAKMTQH
Description: ALDH-3 inhibition assay. Type of data set: biochemical. Particulars: 60 min pre-incubation; 10 μM = highest concentration tested; read-out: Enzymatic Assays IC50 ALDH-3.
Description: ALDH-3 inhibition assay: The ALDH-3 reaction mixture used in the assay contained 200 μM benzaldehyde, 2.5 mM NAD+, 20 mM NaCl, 10 mM MgCl2, and 10 nM recombinant human ALDH-3 in 50 mM Hepes buffer, pH 7.5 in a final volume of 10 μL using 384-well Corning 3820 plates. After 60 min of pre-incubation of the test ALDH-2 inhibitor compound with ALDH-3, the reaction was started by adding NAD+ and benzaldehyde and the assay reaction mixture was allowed to proceed for 60 minutes. Activity of the ALDH-3 enzyme was determined by monitoring NADH formation using Perkin-Elmer Envision Reader with excitation and emission wavelengths set at 340 and 460 nm, respectively.

For data set [7] the following is noted: O'Malley et al. 2021; cited from earlier work.

For `O=C(NCc1ccc(-c2cccc(=O)[nH]2)nc1)c1c(Cl)cccc1Cl` [(1j), 2,6-Dichloro-N-((6′-oxo-1′,6′-dihydro-[2,2′-bipyridin]-5-yl)methyl)benzamide], the IC50 in data set [1] was over 10 µM; in data set [3], 0.007 µM; in data set [4], over 10 µM; in data set [5], over 10 µM. Also, the “HepaRG 3D Spheroid MEC” value in data set [2] turned out to be 5.06 µM.
On to `O=C(NCc1ccc(-c2[nH]c(=O)ccc2F)cc1)c1ccccc1Cl` [Compound (1f), 2-Chloro-N-(4-(3-fluoro-6-oxo-1,6-dihydropyridin-2-yl)benzyl)benzamide], for which the IC50 in data set [1] was over 10 µM; in data set [3] it was 0.329 µM; in data set [4], over 10 µM; in data set [5], over 10 µM; in data set [6], over 10 µM.
For the molecule `O=C(NCc1ccc(-c2cc[nH]c(=O)c2)cc1)c1c(Cl)cccc1Cl` [2,6-dichloro-N-[4-(2-oxo-1,2-dihydro-pyridin-4-yl)-benzyl]-benzamide], in data set [7], the hepatotoxicity in humans result is “high levels of hepatotoxicity”.
With `O=C(NCc1ccc(-c2[nH]c(=O)ccc2F)nc1)c1c(Cl)cccc1Cl` [(1i), 2,6-dichloro-N-((3′-fluoro-6′-oxo-1′,6′-dihydro-[2,2′-bipyridin]-5-yl)methyl)benzamide], the IC50 in data set [1] was over 10 µM; in data set [3] it was 0.004 µM; in data set [4], over 10 µM; in data set [5], over 10 µM. Also, the “HepaRG 3D Spheroid MEC” value in data set [2] was determined as 15.3 µM.
Turning to `O=C(NCc1ccc(-c2[nH]c(=O)ccc2F)cc1)c1c(Cl)cccc1Cl` [Compound (1d), 2,6-dichloro-N-(4-(3-fluoro-6-oxo-1,6-dihydropyridin-2-yl)benzyl)benzamide], the IC50 is over 10 µM in data set [1], 0.027 µM in data set [3], over 10 µM in data set [4] and over 10 µM in data set [5]. In addition, in data set [2], the “HepaRG 3D Spheroid MEC” value was “No Effect”.
For the molecule `Cc1cccc(Cl)c1C(=O)NCc1cnc(-c2cccc(=O)[nH]2)nc1` [(1n), 2-Chloro-6-methyl-N-((2-(6-oxo-1,6-dihydropyridin-2-yl)pyrimidin-5-yl)methyl)benzamide], the IC50 in data set [1] is over 10 µM; in data set [3], 0.031 µM; in data set [4], over 10 µM; in data set [5], over 10 µM. Also, the “HepaRG 3D Spheroid MEC” value in data set [2] is 7.48 µM.
Take `Cc1nccc(Cl)c1C(=O)NCc1ccc(-c2[nH]c(=O)ccc2F)cc1` [(1h), 4-Chloro-N-(4-(3-fluoro-6-oxo-1,6-dihydropyridin-2-yl)benzyl)-2-methylnicotinamide]: the IC50 in data set [1] is over 10 µM; in data set [3], 0.1 µM; in data set [4] it was over 10 µM; in data set [5], over 10 µM. Further, the “HepaRG 3D Spheroid MEC” value in data set [2] was determined as 53.9 µM.
Consider `Cc1cccc(Cl)c1C(=O)NCc1ccc(-c2[nH]c(=O)ccc2F)cc1` [Compound (1e), 2-Chloro-N-(4-(3-fluoro-6-oxo-1,6-dihydropyridin-2-yl)benzyl)-6-methylbenzamide], for which the IC50 in data set [1] was over 10 µM; in data set [3], 0.009 µM; in data set [4] it was over 10 µM; in data set [5], over 10 µM. Also, the “HepaRG 3D Spheroid MEC” value in data set [2] amounted to 50.4 µM.
Regarding `Cc1nccc(Cl)c1C(=O)NCc1ccc(-c2cccc(=O)[nH]2)nc1` [(1m), 4-Chloro-2-methyl-N-((6′-oxo-1′,6′-dihydro-[2,2′-bipyridin]-5-yl)methyl)nicotinamide], the IC50 in data set [1] was over 10 µM; in data set [3], 0.98 µM; in data set [4] it was over 10 µM; in data set [5], over 10 µM; in data set [6], over 10 µM.
